From US20240150293A1, “SPIROCYCLOHEXANE DERIVATIVES, PHARMACEUTICAL COMPOSITIONS CONTAINING THEM AND THEIR USES AS ANTI-APOPTOTIC INHIBITORS” (LES LABORATOIRES SERVIER, priority 2021, published 2024)

Molecular target: Mcl-1 protein (UniProtKB Q07820) (Homo sapiens (Human), UniProt Q07820)
Test: Inhibition of Mcl-1 by the fluorescence polarisation assay (Example A, Method A)
Type: binding
Conditions: fluorescence polarization assay
Summary of the method: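 Protein (5 nM) and fluorescein-tagged peptide tracer (1 nM) incubated with 11-point compound series for 2 h at room temperature in HEPES/NaCl/Tween 20 buffer, pH 7.4, 5% DMSO. Displacement read as decrease in polarisation; IC50 fitted by 4-parameter logistic, converted to Ki (cKi or eKi).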

Sequence of Mcl-1 protein (Q07820 whole entry): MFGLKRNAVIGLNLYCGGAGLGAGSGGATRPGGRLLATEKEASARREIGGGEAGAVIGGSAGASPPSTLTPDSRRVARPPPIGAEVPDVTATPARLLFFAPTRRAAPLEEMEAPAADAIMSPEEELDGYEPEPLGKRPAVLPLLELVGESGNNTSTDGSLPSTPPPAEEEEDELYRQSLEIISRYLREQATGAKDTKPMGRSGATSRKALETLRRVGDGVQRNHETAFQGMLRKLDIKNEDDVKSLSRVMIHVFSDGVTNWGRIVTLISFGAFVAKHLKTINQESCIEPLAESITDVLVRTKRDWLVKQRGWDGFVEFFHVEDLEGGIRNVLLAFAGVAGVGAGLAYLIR

| SMILES | Ki [nM] |
| --- | --- |
| COc1ccc(C2Cc3ccccc3[C@]23CC[C@@](Nc2cccc(Cl)c2)(C(=O)O)CC3)cc1C (single isomer, unassigned) [Example 243, (1r,4r)-4-(3-chloroanilino)-2′-(4-methoxy-3-methylphenyl)-2′,3′-dihydrospiro[cyclohexane-1,1′-indene]-4-carboxylic acid] | 273 |
| O=C(O)C1(Nc2cccc(Cl)c2)CCC2(CC1)c1ccccc1CC2CCCOc1ncnc2c1CCCC2 (stereo not drawn) [Example 460, (1r,4r)-4-(3-chloroanilino)-2′-{3-[(5,6,7,8-tetrahydroquinazolin-4-yl)oxy]propyl}-2′,3′-dihydrospiro[cyclohexane-1,1′-indene]-4-carboxylic acid] | 159 |
| COc1ccc([C@@H]2Cc3ccccc3[C@]23CC[C@@](Nc2cccc(Br)c2)(C(=O)O)CC3)cc1 [Example 217, (1r,2′S,4S)-4-(3-bromoanilino)-2′-(4-methoxyphenyl)-2′,3′-dihydrospiro[cyclohexane-1,1′-indene]-4-carboxylic acid] | 484 |
| CCOC/C=C/C1=Cc2ccccc2[C@]12CC[C@@](Nc1cccc(Cl)c1)(C(=O)O)CC2 [Example 154, (1r,4r)-4-(3-chloroanilino)-2′-[(1E)-3-ethoxyprop-1-en-1-yl]spiro[cyclohexane-1,1′-indene]-4-carboxylic acid] | 162 |
| COc1ccc(C2=Cc3ccccc3[C@]23CC[C@@](Nc2cccc(Cl)c2)(C(=O)O)CC3)cc1 [Example 230, (1s,4s)-4-(3-chloroanilino)-2′-(4-methoxyphenyl)spiro[cyclohexane-1,1′-indene]-4-carboxylic acid] | 1060 |
| O=C(O)[C@]1(Nc2cccc(Br)c2)CC[C@@]2(CC1)c1ccccc1CC2CCc1ccccn1 (stereo partly drawn) [Example 175, (1r,4r)-4-(3-bromoanilino)-2′-[2-(pyridin-2-yl)ethyl]-2′,3′-dihydrospiro[cyclohexane-1,1′-indene]-4-carboxylic acid] | 1540 |
| O=C(O)[C@]1(Nc2cccc(Cl)c2)CC[C@@]2(CC1)c1ccccc1CC2c1cccc(Oc2cccnc2)c1 (single isomer, unassigned) [Example 374, (1r,4r)-4-(3-chloroanilino)-2′-{3-[(pyridin-3-yl)oxy]phenyl}-2′,3′-dihydrospiro[cyclohexane-1,1′-indene]-4-carboxylic acid] | 189 |
| O=C(O)[C@]1(Nc2cccc(Cl)c2)CC[C@@]2(CC1)c1ccccc1CC2CCCSc1ccncc1 (stereo partly drawn) [Example 399, (1r,4r)-4-(3-chloroanilino)-2′-{3-[(pyridin-4-yl)sulfanyl]propyl}-2′,3′-dihydrospiro[cyclohexane-1,1′-indene]-4-carboxylic acid] | 299 |
| CN(CCc1ccccc1)C(=O)C1Cc2ccccc2[C@]12CC[C@@](Nc1cccc(Cl)c1)(C(=O)O)CC2 (single isomer, unassigned) [Example 408, (1r,4r)-4-(3-chloroanilino)-2′-[methyl(2-phenylethyl)carbamoyl]-2′,3′-dihydrospiro[cyclohexane-1,1′-indene]-4-carboxylic acid] | 4270 |
| O=C(O)[C@]1(Nc2cccc(Cl)c2)CC[C@]2(CC1)C(/C=C/c1ccc(-c3ccccc3)cc1)=Cc1ccccc12 [Example 158, (1r,4r)-2′-[(E)-2-([1,1′-biphenyl]-4-yl)ethenyl]-4-(3-chloroanilino)spiro[cyclohexane-1,1′-indene]-4-carboxylic acid] | 311 |
| O=C(O)[C@]1(Nc2cccc(Cl)c2)CC[C@]2(CC1)C(C#Cc1ccccn1)=Cc1ccccc12 [Example 170, (1s,4s)-4-(3-chloroanilino)-2′-[(pyridin-2-yl)ethynyl]spiro[cyclohexane-1,1′-indene]-4-carboxylic acid] | 1920 |
| Cc1cc(OCCCC2Cc3ccccc3C23CCC(Nc2cccc(Cl)c2)(C(=O)O)CC3)cc(C)c1Cl (stereo not drawn) [Example 436, (1r,4r)-4-(3-chloroanilino)-2′-[3-(4-chloro-3,5-dimethylphenoxy)propyl]-2′,3′-dihydrospiro[cyclohexane-1,1′-indene]-4-carboxylic acid] | 918 |
| COc1cc(OCCC2Cc3ccccc3[C@]23CC[C@@](Nc2cccc(Cl)c2)(C(=O)O)CC3)ccn1 (stereo partly drawn) [Example 174, (1r,4r)-4-(3-chloroanilino)-2′-{2-[(2-methoxypyridin-4-yl)oxy]ethyl}-2′,3′-dihydrospiro[cyclohexane-1,1′-indene]-4-carboxylic acid] | 138 |
| O=C(O)C1(Nc2cccc(Br)c2)CCC2(CC1)c1ccccc1-c1ccccc12 [Example 117, 4-[(3-bromophenyl)amino]spiro[cyclohexane-1,9′-fluorene]-4-carboxylic acid] | 5760 |

More lines, in order of falling Ki, values ahead:

| Ki [nM] | SMILES |
| --- | --- |
| 25700 | Cc1cc(Br)cc2c1N(C)C(=O)[C@]21CC[C@@](Nc2cccc(Br)c2)(C(=O)O)CC1 [Example 20, (1r,4r)-5′-bromo-4-(3-bromoanilino)-1′,7′-dimethyl-2′-oxo-1′,2′-dihydrospiro[cyclohexane-1,3′-indole]-4-carboxylic acid] |
| 13400 | COc1ccc([C@H]2Cc3ccccc3[C@]23CC[C@@](Nc2cccc(Br)c2)(C(=O)O)CC3)cc1 [Example 218, (1r,2′R,4R)-4-(3-bromoanilino)-2′-(4-methoxyphenyl)-2′,3′-dihydrospiro[cyclohexane-1,1′-indene]-4-carboxylic acid] |
| 8720 | O=C(O)[C@]1(Nc2cccc(Cl)c2)CC[C@@]2(CC1)c1ccccc1CC2c1ccc(OCc2ccccc2)cc1 (single isomer, unassigned) [Example 353, (1r,4r)-2′-[4-(benzyloxy)phenyl]-4-(3-chloroanilino)-2′,3′-dihydrospiro[cyclohexane-1,1′-indene]-4-carboxylic acid] |
| 8450 | O=C(O)[C@]1(Nc2cccc(Cl)c2)CC[C@@]2(CC1)c1ccccc1C[C@@H]2c1cccc(Oc2ccccc2)c1 [Example 324, (1r,2′R,4R)-4-(3-chloroanilino)-2′-(3-phenoxyphenyl)-2′,3′-dihydrospiro[cyclohexane-1,1′-indene]-4-carboxylic acid] |
| 5730 | O=C(O)[C@]1(Nc2cccc(Cl)c2)CC[C@@]2(CC1)c1ccccc1[C@@H]1C[C@@H]12 (single isomer, unassigned) [Example 108, (1r,1′aR*,4r,6′aS*)-4-(3-chloroanilino)-1′a,6′a-dihydro-1′H-spiro[cyclohexane-1,6′-cyclopropa[a]indene]-4-carboxylic acid] |
| 1670 | O=C(O)[C@]1(Nc2cccc(Cl)c2)CC[C@]2(CC1)C(Cc1ccccc1)=Cc1ccccc12 [Example 168, (1r,4r)-2′-benzyl-4-(3-chloroanilino)spiro[cyclohexane-1,1′-indene]-4-carboxylic acid] |
| 1380 | COCCCC1Cc2ccccc2[C@]12CC[C@@](Nc1cccc(Cl)c1)(C(=O)O)CC2 (stereo partly drawn) [Example 197, (1r,4r)-4-(3-chloroanilino)-2′-(3-methoxypropyl)-2′,3′-dihydrospiro[cyclohexane-1,1′-indene]-4-carboxylic acid] |
| 1290 | CC1=Cc2cc(Cl)ccc2C12CCC(Nc1cccc(Br)c1)(C(=O)O)CC2 (stereo not drawn) [Example 124, 4-(3-bromoanilino)-5′-chloro-2′-methylspiro[cyclohexane-1,1′-indene]-4-carboxylic acid] |
| 1100 | O=C(O)[C@]1(Nc2cccc(Cl)c2)CC[C@]2(CC1)C(COCCc1ccc(Cl)cc1)=Cc1ccccc12 [Example 420, (1s,4s)-4-(3-chloroanilino)-2′-{[2-(4-chlorophenyl)ethoxy]methyl}spiro[cyclohexane-1,1′-indene]-4-carboxylic acid] |
| 925 | O=C(O)[C@]1(Nc2cccc(Cl)c2)CC[C@@]2(CC1)c1ccccc1CC2c1ccc2c(c1)OCC2 (single isomer, unassigned) [Example 287, (1r,4r)-4-(3-chloroanilino)-2′-(2,3-dihydro-1-benzofuran-6-yl)-2′,3′-dihydrospiro[cyclohexane-1,1′-indene]-4-carboxylic acid] |
| 745 | O=C(O)[C@]1(Nc2cccc(Cl)c2)CC[C@@]2(CC1)c1ccccc1CC2[C@H]1C[C@@H]1COc1ccccc1 (relative stereo) [Example 109, (1r,4r)-4-(3-chloroanilino)-2′-[(1R*,2S*)-2-(phenoxymethyl)cyclopropyl]-2′,3′-dihydrospiro[cyclohexane-1,1′-indene]-4-carboxylic acid] |
| 385 | CCOc1cccc(C2=Cc3ccccc3[C@]23CC[C@@](Nc2cccc(Cl)c2)(C(=O)O)CC3)c1 [Example 313, (1s,4s)-4-(3-chloroanilino)-2′-(3-ethoxyphenyl)spiro[cyclohexane-1,1′-indene]-4-carboxylic acid] |
| 284 | O=C(O)[C@]1(Nc2cccc(Cl)c2)CC[C@]2(CC1)C(I)=Cc1ccccc12 [Example 76, (1s,4s)-4-(3-chloroanilino)-2′-iodospiro[cyclohexane-1,1′-indene]-4-carboxylic acid] |
| 93.5 | O=C(O)[C@]1(Nc2cccc(Cl)c2)CC[C@]2(CC1)C(CCCOc1cccc3[nH]ccc13)=Cc1ccccc12 [Example 434, (1r,4r)-4-(3-chloroanilino)-2′-{3-[(1H-indol-4-yl)oxy]propyl}spiro[cyclohexane-1,1′-indene]-4-carboxylic acid] |
| 82.2 | COc1ccc2c(c1)[C@]1(CC[C@@](Nc3cccc(Cl)c3)(C(=O)O)CC1)C(Br)=C2 [Example 129, (1s,4s)-2′-bromo-4-(3-chloroanilino)-6′-methoxyspiro[cyclohexane-1,1′-indene]-4-carboxylic acid] |
| 29.7 | CC1CCc2nccc(OCCCC3Cc4ccccc4[C@]34CC[C@@](Nc3cccc(Cl)c3)(C(=O)O)CC4)c21 (stereo partly drawn) [Example 478, (1r,4r)-4-(3-chloroanilino)-2′-{3-[(5-methyl-6,7-dihydro-5H-cyclopenta[b]pyridin-4-yl)oxy]propyl}-2′,3′-dihydrospiro[cyclohexane-1,1′-indene]-4-carboxylic acid] |
